Patent publication US20250129055A1, “GLUCOSIDE DERIVATIVE, AND PREPARATION METHOD THEREFOR AND APPLICATION THEREOF” (BEIJING INCREASE INNOVATIVE DRUG CO., LTD., priority 2020, published 2025)
Marks after values point to notes of the source that are not given here.

What was measured:
[1] = target: SGLT2 (Homo sapiens (Human), UniProt P31639); test: In vitro SGLT2 inhibitory activity: 1-NBDG uptake by CHO-SGLT2 cells; assay type: cell-based; conditions: read-out: Inhibition rate of compounds on SGLT2 (%)
Method: The effect of the compounds on SGLT2-mediated glucose uptake was investigated by establishing an SGLT2 overexpression cell model and using the fluorescent glucose (2-deoxy-1-[(7-nitro-2,1,3-benzoxadiazol-4-yl)amino]-D-glucose, 1-NBDG) tracer method to screen out candidate compounds with SGLT2 inhibitory activity.
The humanized SGLT2 overexpression cells (CHO-SGLT2) constructed from Chinese hamster ovary (CHO) cells were cultured in 1640 medium (Gibco) containing 10% fetal bovine serum (Gibco, 10270), subcultured at a ratio of 1:3, and replaced with new culture medium 3 times every week. Fluorescence detection cell culture plates and other culture flasks were purchased from Corning Company. […] Appropriate amounts of all compounds were weighed, prepared into 100 mM stock solutions with DMSO, and stored at 4° C. in the dark.
Before the 1-NBDG uptake test, CHO-SGLT2 cells were digested and seeded in a 96-well cell culture plate with a cell number of 40,000/well. After the cells were cultured for 48 h, the medium was discarded, and 100 μl of choline buffer was added to each well. After the cells were starved at 37° C. for 30 min, the choline buffer was discarded and 100 μl of the newly prepared Na^+ sodium buffer containing […] 1-NBDG and the test compounds (Compound) was added. The solvent DMSO was used as the negative control (Control) for the test compounds.
The Na^+ sodium buffer without 1-NBDG was used as the blank control (Blank). After 1 h of culture, the incubation solution was discarded. The cells were washed with choline buffer solution 3 times, and then 50 μl of neutral lysate was added to each well to lyse the cells on ice for 10 min. The fluorescence value of each well was detected using a multi-functional microplate reader at […].
At least 3 experimental replicates were set for each compound at indicated concentrations, and the data were expressed as mean±SEM. Uptake amount of 1-NBDG by cells=fluorescence value1-NBDG-fluorescence valueBlank. Inhibition rate on uptake amount of SGLT2 glucose (%)=(uptake amountcontrol−uptake amountcompound)/uptake amountcontrol×100%. Concentration-inhibition rate curves were plotted using Graphpad Prism software, and IC50 values were calculated accordingly.

[2] = test system: normal ICR mice; test: Blood glucose level of normal mice after oral administration of glucose; assay type: in vivo
Method: Test Example 2 Evaluation of the in vivo activity of the compounds of the present invention: the effect on the blood glucose level of normal mice after oral administration of glucose
ICR mice (male, 18-20 g), purchased from Beijing Vital River Laboratories Co., Ltd., were fed adaptively for 4 days, and randomly divided into 4 groups, namely normal control group, positive control group, and two groups of test compounds, with 8 mice in each group.
The aforementioned stock solutions were diluted to appropriate concentrations with double distilled water.
The mice were fasted overnight. […] After 1 h, blood was collected at 0 min (fasting), and then mice in each group were administered with glucose (2.0 g/kg) solution by gavage. Blood was collected at 30 min, 60 min, and 120 min after glucose administration. The blood glucose level was measured using glucose oxidase-peroxidase method, and the area under the blood glucose curve was calculated.
The data were expressed as mean±SD. The comparison between multiple groups was performed by one-way analysis of variance, and the comparison between two groups was performed by Dunnett's t test. Statistical graphing was performed using Graphpad Prism software.

[3] = test system: spontaneous type 2 diabetes mellitus db/db mice; test: Pharmacodynamic effect on spontaneous type 2 diabetes mellitus db/db mice; assay type: in vivo
Method: Test example 4 Pharmacodynamic effect of the compounds of the present invention on spontaneous type 2 diabetes mellitus db/db mice
Spontaneous type 2 diabetes mellitus db/db mice and the normal control db/m mice (male, 5-6 weeks old) were used. The db/db mice were randomly divide into […] based on random blood glucose, fasting blood glucose, percentage of blood glucose reduction at 40 min, blood triglycerides, total blood cholesterol, and body weight, which were model group (con), positive control group and three groups of test compound with different doses (n=10).
Mice were administered with drugs by gavage.
The mice were fasted for 2 h, and then the 0 h (fasting) blood samples were collected. Then the mice in each group were administered with drugs by gavage, and blood samples were collected at 1 h, 2 h, 4 h, 6 h, 8 h and 24 h after administration. The blood glucose level was measured using glucose oxidase-peroxidase method, and the area under the blood glucose curve was calculated. Moreover, urine samples were collected 2 h and 4 h after administration to determine the concentration of urine glucose.
On the 15th day of continuous administration, before the mice were fasted, blood samples were collected to measure the random blood glucose. Then the mice were fasted and administered with the compounds, and after 2 h, blood samples were collected to measure the fasting blood glucose. […]
The data were expressed as mean±SEM (n=10). The comparison between multiple groups was performed by one-way analysis of variance, and the comparison between two groups was performed by Dunnett's t test. Statistical graphing was performed using Graphpad Prism software.

Sequence of SGLT2 (P31639 whole entry): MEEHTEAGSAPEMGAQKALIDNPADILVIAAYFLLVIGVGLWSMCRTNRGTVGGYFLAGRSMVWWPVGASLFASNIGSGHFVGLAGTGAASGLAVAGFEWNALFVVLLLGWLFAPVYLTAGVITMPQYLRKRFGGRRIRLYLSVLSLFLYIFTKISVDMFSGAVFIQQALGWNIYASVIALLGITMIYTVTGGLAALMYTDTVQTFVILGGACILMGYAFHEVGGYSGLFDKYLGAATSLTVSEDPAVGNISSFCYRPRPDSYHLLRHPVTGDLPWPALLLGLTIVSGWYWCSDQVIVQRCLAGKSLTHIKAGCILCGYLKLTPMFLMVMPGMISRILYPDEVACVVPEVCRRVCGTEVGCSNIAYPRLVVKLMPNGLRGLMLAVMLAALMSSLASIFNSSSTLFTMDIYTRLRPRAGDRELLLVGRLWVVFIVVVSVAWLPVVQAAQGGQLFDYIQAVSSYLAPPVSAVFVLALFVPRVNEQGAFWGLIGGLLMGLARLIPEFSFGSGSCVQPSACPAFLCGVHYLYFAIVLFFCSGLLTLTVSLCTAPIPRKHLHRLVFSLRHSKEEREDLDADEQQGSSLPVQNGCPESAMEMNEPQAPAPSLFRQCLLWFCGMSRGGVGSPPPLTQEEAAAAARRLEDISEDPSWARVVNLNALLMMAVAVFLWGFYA

What does the source list for `CCOc1ccc(Cc2cc([C@@H]3O[C@H](CO)[C@@H](O)[C@H](O)[C@H]3O)ccc2Cl)cc1` [Dapagliflozin, reference compound]?
inhibition at 10 µM ([1]; compound concentration 1 × 10^−5 mol/L): 106 ± 4.2%; inhibition at 10 pM ([1]; compound concentration 1 × 10^−11 mol/L): 1.9 ± 9.2%; inhibition at 1 pM ([1]; compound concentration 1 × 10^−12 mol/L): 6.8 ± 5.9%; inhibition at 0.05 µM ([1]; compound concentration 5 × 10^−8 mol/L): 84.3 ± 4%; inhibition at 0.005 µM ([1]; compound concentration 5 × 10^−9 mol/L): 84.8 ± 3.2%; inhibition at 0.0005 µM ([1]; compound concentration 5 × 10^−10 mol/L): 60.1 ± 2%; inhibition at 50 pM ([1]; compound concentration 5 × 10^−11 mol/L): 42 ± 2.8%; Blood glucose 0 min ([2]; 2 mg/kg by gavage, 0 min (fasting, 1 h after dosing)): 71.8 ± 6.6 mg/dL; Blood glucose 30 min ([2]; 2 mg/kg by gavage, 30 min after glucose 2.0 g/kg): 213.2 ± 26.6 mg/dL; Blood glucose 60 min ([2]; 2 mg/kg by gavage, 60 min after glucose 2.0 g/kg): 122.2 ± 16.1 mg/dL; Blood glucose 120 min ([2]; 2 mg/kg by gavage, 120 min after glucose 2.0 g/kg): 83.0 ± 13.5 mg/dL; AUC of blood glucose ([2]; 2 mg/kg by gavage, oral glucose 2.0 g/kg): 257.7 ± 24.0 mg·h/dL; Reduction of the area under the curve (AUC) of blood glucose ([2]; 2 mg/kg, vs. normal control group): 35.2%; AUC of blood glucose ([3]; 2.0 mg/kg single administration, 0-24 h): 8866 ± 361.1***^ mg/dl · h; Concentration of blood glucose 0 h ([3]; 2.0 mg/kg single administration, fasting, 0 h before administration): 488.5 ± 29.2 mg/dL; Concentration of blood glucose 1 h ([3]; 2.0 mg/kg single administration, fasting, 1 h): 386.4 ± 16.5 mg/dL; Concentration of blood glucose 2 h ([3]; 2.0 mg/kg single administration, fasting, 2 h): 333.8 ± 13.9 mg/dL; Concentration of blood glucose 4 h ([3]; 2.0 mg/kg single administration, fasting, 4 h): 265.8 ± 9.1 mg/dL; Concentration of blood glucose 6 h ([3]; 2.0 mg/kg single administration, fasting, 6 h): 209.3 ± 8.0 ^ mg/dl; Concentration of blood glucose 8 h ([3]; 2.0 mg/kg single administration, fasting, 8 h): 176.7 ± 10.2 mg/dL; Concentration of blood glucose 24 h ([3]; 2.0 mg/kg single administration, fasting, 24 h): 649.4 ± 40.0 mg/dL; Fasting blood glucose, the 15th day ([3]; 2.0 mg/kg, 15th day): 183.0 ± 11.2 mg/dL; Random blood glucose, the 15th day ([3]; 2.0 mg/kg, 15th day): 344.7 ± 24.1 mg/dL; Fasting blood glucose, the 22nd day ([3]; 2.0 mg/kg, 22nd day): 191.8 ± 11.0 mg/dL; HbA1c ([3]; 2.0 mg/kg, 28th day): 5.1 ± 0.3 %; Random blood glucose, the 22nd day (title: 28th day) ([3]; 2.0 mg/kg, column head 22nd day, title 28th day): 317.0 ± 16.4 mg/dL
